# Measured values published in patent publication US10485235B2, “Aryloxypyrimidinyl ethers as herbicides” (FMC Corporation, priority 2015, dated 2019).
# System: barnyardgrass (Echinochloa crus-galli)
# Experiment: Test A preemergence, barnyardgrass
# Assay type: in vivo
# Conditions: Preemergence, 125 g ai/ha; 0 to 100 scale (0 no effect, 100 complete control)
# Procedure, shortened: (§1)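 Visual injury rating versus untreated controls on a 0 to 100 scale (0 = no effect, 100 = complete control), taken about 10 days after treatment in the greenhouse. Preemergence: directed soil spray over seeded loam–sand. Postemergence: spray on one- to two-leaf plants, 2 to 10 cm tall.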
row,SMILES,"Plant response rating, Barnyardgrass"
1,CC(COc1c(C#N)cccc1Oc1ncc(Cl)cn1)CC(F)(F)F (stereo not drawn) [Compound 34],70

# Same assay, conditions: Preemergence, 500 g ai/ha; 0 to 100 scale (0 no effect, 100 complete control)
row,SMILES,"Plant response rating, Barnyardgrass"
1,CC(COc1c(C#N)cccc1Oc1ncc(Cl)cn1)CC(F)(F)F (stereo not drawn) [Compound 34],100

# System: kochia (Kochia scoparia)
# Experiment: Test A preemergence, kochia
# Assay type: in vivo
# Conditions: Preemergence, 125 g ai/ha; 0 to 100 scale (0 no effect, 100 complete control)
# Procedure, shortened: as §1
row,SMILES,"Plant response rating, Kochia"
1,CC(COc1c(C#N)cccc1Oc1ncc(Cl)cn1)CC(F)(F)F (stereo not drawn) [Compound 34],80

# Same assay, conditions: Preemergence, 500 g ai/ha; 0 to 100 scale (0 no effect, 100 complete control)
row,SMILES,"Plant response rating, Kochia"
1,CC(COc1c(C#N)cccc1Oc1ncc(Cl)cn1)CC(F)(F)F (stereo not drawn) [Compound 34],100

# System: ragweed (common ragweed, Ambrosia elatior)
# Experiment: Test A preemergence, ragweed
# Assay type: in vivo
# Conditions: Preemergence, 125 g ai/ha; 0 to 100 scale (0 no effect, 100 complete control)
# Procedure, shortened: as §1
row,SMILES,"Plant response rating, Ragweed"
1,CC(COc1c(C#N)cccc1Oc1ncc(Cl)cn1)CC(F)(F)F (stereo not drawn) [Compound 34],0

# Same assay, conditions: Preemergence, 500 g ai/ha; 0 to 100 scale (0 no effect, 100 complete control)
row,SMILES,"Plant response rating, Ragweed"
1,CC(COc1c(C#N)cccc1Oc1ncc(Cl)cn1)CC(F)(F)F (stereo not drawn) [Compound 34],10

# System: ryegrass, Italian (Italian ryegrass, Lolium multiflorum)
# Experiment: Test A preemergence, Italian ryegrass
# Assay type: in vivo
# Conditions: Preemergence, 125 g ai/ha; 0 to 100 scale (0 no effect, 100 complete control)
# Procedure, shortened: as §1
row,SMILES,"Plant response rating, Ryegrass, Italian"
1,CC(COc1c(C#N)cccc1Oc1ncc(Cl)cn1)CC(F)(F)F (stereo not drawn) [Compound 34],10

# Same assay, conditions: Preemergence, 500 g ai/ha; 0 to 100 scale (0 no effect, 100 complete control)
row,SMILES,"Plant response rating, Ryegrass, Italian"
1,CC(COc1c(C#N)cccc1Oc1ncc(Cl)cn1)CC(F)(F)F (stereo not drawn) [Compound 34],40

# System: foxtail, giant (giant foxtail, Setaria faberii)
# Experiment: Test A preemergence, giant foxtail
# Assay type: in vivo
# Conditions: Preemergence, 125 g ai/ha; 0 to 100 scale (0 no effect, 100 complete control)
# Procedure, shortened: as §1
row,SMILES,"Plant response rating, Foxtail, Giant"
1,CC(COc1c(C#N)cccc1Oc1ncc(Cl)cn1)CC(F)(F)F (stereo not drawn) [Compound 34],100

# Same assay, conditions: Preemergence, 500 g ai/ha; 0 to 100 scale (0 no effect, 100 complete control)
row,SMILES,"Plant response rating, Foxtail, Giant"
1,CC(COc1c(C#N)cccc1Oc1ncc(Cl)cn1)CC(F)(F)F (stereo not drawn) [Compound 34],100

# System: pigweed (Amaranthus retroflexus)
# Experiment: Test A preemergence, pigweed
# Assay type: in vivo
# Conditions: Preemergence, 125 g ai/ha; 0 to 100 scale (0 no effect, 100 complete control)
# Procedure, shortened: as §1
row,SMILES,"Plant response rating, Pigweed"
1,CC(COc1c(C#N)cccc1Oc1ncc(Cl)cn1)CC(F)(F)F (stereo not drawn) [Compound 34],100

# Same assay, conditions: Preemergence, 500 g ai/ha; 0 to 100 scale (0 no effect, 100 complete control)
row,SMILES,"Plant response rating, Pigweed"
1,CC(COc1c(C#N)cccc1Oc1ncc(Cl)cn1)CC(F)(F)F (stereo not drawn) [Compound 34],100

# System: barnyardgrass (Echinochloa crus-galli)
# Experiment: Test A postemergence, barnyardgrass
# Assay type: in vivo
# Conditions: 125 g ai/ha, postemergence; 0 to 100 scale, 0 is no effect, 100 is complete control; approximately 10 days
# Procedure, shortened: as §1
row,SMILES,"Plant response rating, Barnyardgrass"
1,CC(COc1c(C#N)cccc1Oc1ncc(Cl)cn1)CC(F)(F)F (stereo not drawn) [Compound 34],20

# Same assay, conditions: 500 g ai/ha, postemergence; 0 to 100 scale, 0 is no effect, 100 is complete control; approximately 10 days
row,SMILES,"Plant response rating, Barnyardgrass"
1,CC(COc1c(C#N)cccc1Oc1ncc(Cl)cn1)CC(F)(F)F (stereo not drawn) [Compound 34],50

# System: kochia (Kochia scoparia)
# Experiment: Test A postemergence, kochia
# Assay type: in vivo
# Conditions: 125 g ai/ha, postemergence; 0 to 100 scale, 0 is no effect, 100 is complete control; approximately 10 days
# Procedure, shortened: as §1
row,SMILES,"Plant response rating, Kochia"
1,CC(COc1c(C#N)cccc1Oc1ncc(Cl)cn1)CC(F)(F)F (stereo not drawn) [Compound 34],90

# Same assay, conditions: 500 g ai/ha, postemergence; 0 to 100 scale, 0 is no effect, 100 is complete control; approximately 10 days
row,SMILES,"Plant response rating, Kochia"
1,CC(COc1c(C#N)cccc1Oc1ncc(Cl)cn1)CC(F)(F)F (stereo not drawn) [Compound 34],100

# System: ragweed (common ragweed, Ambrosia elatior)
# Experiment: Test A postemergence, ragweed
# Assay type: in vivo
# Conditions: 125 g ai/ha, postemergence; 0 to 100 scale, 0 is no effect, 100 is complete control; approximately 10 days
# Procedure, shortened: as §1
row,SMILES,"Plant response rating, Ragweed"
1,CC(COc1c(C#N)cccc1Oc1ncc(Cl)cn1)CC(F)(F)F (stereo not drawn) [Compound 34],10

# Same assay, conditions: 500 g ai/ha, postemergence; 0 to 100 scale, 0 is no effect, 100 is complete control; approximately 10 days
row,SMILES,"Plant response rating, Ragweed"
1,CC(COc1c(C#N)cccc1Oc1ncc(Cl)cn1)CC(F)(F)F (stereo not drawn) [Compound 34],10

# System: ryegrass, Italian (Italian ryegrass, Lolium multiflorum)
# Experiment: Test A postemergence, Italian ryegrass
# Assay type: in vivo
# Conditions: 125 g ai/ha, postemergence; 0 to 100 scale, 0 is no effect, 100 is complete control; approximately 10 days
# Procedure, shortened: as §1
row,SMILES,"Plant response rating, Ryegrass, Italian"
1,CC(COc1c(C#N)cccc1Oc1ncc(Cl)cn1)CC(F)(F)F (stereo not drawn) [Compound 34],0

# Same assay, conditions: 500 g ai/ha, postemergence; 0 to 100 scale, 0 is no effect, 100 is complete control; approximately 10 days
row,SMILES,"Plant response rating, Ryegrass, Italian"
1,CC(COc1c(C#N)cccc1Oc1ncc(Cl)cn1)CC(F)(F)F (stereo not drawn) [Compound 34],20

# System: foxtail, giant (giant foxtail, Setaria faberii)
# Experiment: Test A postemergence, giant foxtail
# Assay type: in vivo
# Conditions: 125 g ai/ha, postemergence; 0 to 100 scale, 0 is no effect, 100 is complete control; approximately 10 days
# Procedure, shortened: as §1
row,SMILES,"Plant response rating, Foxtail, Giant"
1,CC(COc1c(C#N)cccc1Oc1ncc(Cl)cn1)CC(F)(F)F (stereo not drawn) [Compound 34],40

# Same assay, conditions: 500 g ai/ha, postemergence; 0 to 100 scale, 0 is no effect, 100 is complete control; approximately 10 days
row,SMILES,"Plant response rating, Foxtail, Giant"
1,CC(COc1c(C#N)cccc1Oc1ncc(Cl)cn1)CC(F)(F)F (stereo not drawn) [Compound 34],90

# System: pigweed (Amaranthus retroflexus)
# Experiment: Test A postemergence, pigweed
# Assay type: in vivo
# Conditions: 125 g ai/ha, postemergence; 0 to 100 scale, 0 is no effect, 100 is complete control; approximately 10 days
# Procedure, shortened: as §1
row,SMILES,"Plant response rating, Pigweed"
1,CC(COc1c(C#N)cccc1Oc1ncc(Cl)cn1)CC(F)(F)F (stereo not drawn) [Compound 34],100

# Same assay, conditions: 500 g ai/ha, postemergence; 0 to 100 scale, 0 is no effect, 100 is complete control; approximately 10 days
row,SMILES,"Plant response rating, Pigweed"
1,CC(COc1c(C#N)cccc1Oc1ncc(Cl)cn1)CC(F)(F)F (stereo not drawn) [Compound 34],100

# System: wheat (Triticum aestivum)
# Experiment: Test A postemergence, wheat
# Assay type: in vivo
# Conditions: 125 g ai/ha, postemergence; 0 to 100 scale, 0 is no effect, 100 is complete control; approximately 10 days
# Procedure, shortened: as §1
row,SMILES,"Plant response rating, Wheat"
1,CC(COc1c(C#N)cccc1Oc1ncc(Cl)cn1)CC(F)(F)F (stereo not drawn) [Compound 34],10

# Same assay, conditions: 500 g ai/ha, postemergence; 0 to 100 scale, 0 is no effect, 100 is complete control; approximately 10 days
row,SMILES,"Plant response rating, Wheat"
1,CC(COc1c(C#N)cccc1Oc1ncc(Cl)cn1)CC(F)(F)F (stereo not drawn) [Compound 34],20

# System: corn (Zea mays)
# Experiment: Test A postemergence, corn
# Assay type: in vivo
# Conditions: 125 g ai/ha, postemergence; 0 to 100 scale, 0 is no effect, 100 is complete control; approximately 10 days
# Procedure, shortened: as §1
row,SMILES,"Plant response rating, Corn"
1,CC(COc1c(C#N)cccc1Oc1ncc(Cl)cn1)CC(F)(F)F (stereo not drawn) [Compound 34],20

# Same assay, conditions: 500 g ai/ha, postemergence; 0 to 100 scale, 0 is no effect, 100 is complete control; approximately 10 days
row,SMILES,"Plant response rating, Corn"
1,CC(COc1c(C#N)cccc1Oc1ncc(Cl)cn1)CC(F)(F)F (stereo not drawn) [Compound 34],40

# System: blackgrass (Alopecurus myosuroides)
# Experiment: Test A postemergence, blackgrass
# Assay type: in vivo
# Conditions: 125 g ai/ha, postemergence; 0 to 100 scale, 0 is no effect, 100 is complete control; approximately 10 days
# Procedure, shortened: as §1
row,SMILES,"Plant response rating, Blackgrass"
1,CC(COc1c(C#N)cccc1Oc1ncc(Cl)cn1)CC(F)(F)F (stereo not drawn) [Compound 34],20

# Same assay, conditions: 500 g ai/ha, postemergence; 0 to 100 scale, 0 is no effect, 100 is complete control; approximately 10 days
row,SMILES,"Plant response rating, Blackgrass"
1,CC(COc1c(C#N)cccc1Oc1ncc(Cl)cn1)CC(F)(F)F (stereo not drawn) [Compound 34],60

# System: galium (catchweed bedstraw, Galium aparine)
# Experiment: Test A postemergence, galium
# Assay type: in vivo
# Conditions: 125 g ai/ha, postemergence; 0 to 100 scale, 0 is no effect, 100 is complete control; approximately 10 days
# Procedure, shortened: as §1
row,SMILES,"Plant response rating, Galium"
1,CC(COc1c(C#N)cccc1Oc1ncc(Cl)cn1)CC(F)(F)F (stereo not drawn) [Compound 34],70

# Same assay, conditions: 500 g ai/ha, postemergence; 0 to 100 scale, 0 is no effect, 100 is complete control; approximately 10 days
row,SMILES,"Plant response rating, Galium"
1,CC(COc1c(C#N)cccc1Oc1ncc(Cl)cn1)CC(F)(F)F (stereo not drawn) [Compound 34],90

# System: rice (Oryza sativa)
# Experiment: Test B flooded paddy test, rice
# Assay type: in vivo
# Conditions: 250 g ai/ha, Flood; visual rating after 13 to 15 days; scale 0 to 100, 0 is no effect, 100 is complete control
# Procedure, shortened: (§2)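 Plants grown to the 2-leaf stage; pots flooded to 3 cm above soil and compounds applied directly into the paddy water, depth held throughout. After 13 to 15 days in the greenhouse, injury was rated visually against untreated controls on a 0–100 scale (0 no effect, 100 complete control).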
row,SMILES,"Plant response rating, Rice"
1,CC(COc1c(C#N)cccc1Oc1ncc(Cl)cn1)CC(F)(F)F (stereo not drawn) [Compound 34],20

# System: sedge, umbrella (small-flower umbrella sedge, Cyperus difformis)
# Experiment: Test B flooded paddy test, umbrella sedge
# Assay type: in vivo
# Conditions: 250 g ai/ha, Flood; visual rating after 13 to 15 days; scale 0 to 100, 0 is no effect, 100 is complete control
# Procedure, shortened: as §2
row,SMILES,"Plant response rating, Sedge, Umbrella"
1,CC(COc1c(C#N)cccc1Oc1ncc(Cl)cn1)CC(F)(F)F (stereo not drawn) [Compound 34],75

# System: ducksalad (Heteranthera limosa)
# Experiment: Test B flooded paddy test, ducksalad
# Assay type: in vivo
# Conditions: 250 g ai/ha, Flood; visual rating after 13 to 15 days; scale 0 to 100, 0 is no effect, 100 is complete control
# Procedure, shortened: as §2
row,SMILES,"Plant response rating, Ducksalad"
1,CC(COc1c(C#N)cccc1Oc1ncc(Cl)cn1)CC(F)(F)F (stereo not drawn) [Compound 34],40

# System: barnyardgrass (Echinochloa crus-galli)
# Experiment: Test B flooded paddy test, barnyardgrass
# Assay type: in vivo
# Conditions: 250 g ai/ha, Flood; visual rating after 13 to 15 days; scale 0 to 100, 0 is no effect, 100 is complete control
# Procedure, shortened: as §2
row,SMILES,"Plant response rating, Barnyardgrass"
1,CC(COc1c(C#N)cccc1Oc1ncc(Cl)cn1)CC(F)(F)F (stereo not drawn) [Compound 34],0
